{"source": "PubChem BioAssay (NCI)", "assay_in_all_cases": "NCI tumour cell line growth inhibition, 48 h", "key": {"786-0 renal": {"test_system": "786-0 renal"}, "A498 renal": {"test_system": "A498 renal"}, "A549 NSCLC": {"test_system": "A549 NSCLC"}, "ACHN renal": {"test_system": "ACHN renal"}, "BT-549 breast": {"test_system": "BT-549 breast"}, "CAKI-1 renal": {"test_system": "CAKI-1 renal"}, "CCRF-CEM leukemia": {"test_system": "CCRF-CEM leukemia"}, "COLO 205 colon": {"test_system": "COLO 205 colon"}, "DU-145 prostate": {"test_system": "DU-145 prostate"}, "EKVX NSCLC": {"test_system": "EKVX NSCLC"}, "HCC-2998 colon": {"test_system": "HCC-2998 colon"}, "HCT-116 colon": {"test_system": "HCT-116 colon"}, "HCT-15 colon": {"test_system": "HCT-15 colon"}, "HL-60(TB) leukemia": {"test_system": "HL-60(TB) leukemia"}, "HOP-62 NSCLC": {"test_system": "HOP-62 NSCLC"}, "HS 578T breast": {"test_system": "HS 578T breast"}, "HT29 colon": {"test_system": "HT29 colon"}, "IGROV1 ovarian": {"test_system": "IGROV1 ovarian"}, "K-562 leukemia": {"test_system": "K-562 leukemia"}, "KM12 colon": {"test_system": "KM12 colon"}, "LOX IMVI melanoma": {"test_system": "LOX IMVI melanoma"}, "M14 melanoma": {"test_system": "M14 melanoma"}, "MALME-3M melanoma": {"test_system": "MALME-3M melanoma"}, "MCF7 breast": {"test_system": "MCF7 breast"}, "MDA-MB-231 breast": {"test_system": "MDA-MB-231 breast"}, "MDA-MB-435": {"test_system": "MDA-MB-435"}, "MOLT-4 leukemia": {"test_system": "MOLT-4 leukemia"}, "NCI-H226 lung": {"test_system": "NCI-H226 lung"}}, "note": "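Growth conditions: 96-well plates. Treatment: test compound, 48 hours, 5 concentrations. Analysis: linear interpolation between bracketing concentrations; unreached endpoints set to highest concentration. GI50: concentration for 50% inhibition of growth. Definition used: TGI = concentration required for complete inhibition of growth.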", "data": [{"smiles": "CCCCCCCCCC(CCCC(O)CC(=O)O)OC1OC(COC2OC(C)C(O)C(O)C2O)C(O)C(O)C1OC1OC(CO)C(O)C(O)C1OC1OC(C)C(OC(=O)CC(C)C)C(O)C1O", "note": "(stereo unspecified)", "values": [{"measurement": "GI50", "setting": "786-0 renal", "value": "> 60", "unit": "µM"}, {"measurement": "TGI", "setting": "786-0 renal", "value": "> 60", "unit": "µM"}, {"measurement": "GI50", "setting": "A498 renal", "value": 0.459, "unit": "µM"}, {"measurement": "TGI", "setting": "A498 renal", "value": 34.5, "unit": "µM"}, {"measurement": "GI50", "setting": "A549 NSCLC", "value": "> 60", "unit": "µM"}, {"measurement": "TGI", "setting": "A549 NSCLC", "value": "> 60", "unit": "µM"}, {"measurement": "GI50", "setting": "ACHN renal", "value": "> 60", "unit": "µM"}, {"measurement": "TGI", "setting": "ACHN renal", "value": "> 60", "unit": "µM"}, {"measurement": "GI50", "setting": "BT-549 breast", "value": "> 60", "unit": "µM"}, {"measurement": "TGI", "setting": "BT-549 breast", "value": "> 60", "unit": "µM"}, {"measurement": "GI50", "setting": "CAKI-1 renal", "value": "> 60", "unit": "µM"}, {"measurement": "TGI", "setting": "CAKI-1 renal", "value": "> 60", "unit": "µM"}, {"measurement": "GI50", "setting": "CCRF-CEM leukemia", "value": "> 60", "unit": "µM"}, {"measurement": "TGI", "setting": "CCRF-CEM leukemia", "value": "> 60", "unit": "µM"}, {"measurement": "GI50", "setting": "COLO 205 colon", "value": "> 60", "unit": "µM"}, {"measurement": "TGI", "setting": "COLO 205 colon", "value": "> 60", "unit": "µM"}, {"measurement": "GI50", "setting": "DU-145 prostate", "value": "> 60", "unit": "µM"}, {"measurement": "TGI", "setting": "DU-145 prostate", "value": "> 60", "unit": "µM"}, {"measurement": "GI50", "setting": "EKVX NSCLC", "value": "> 60", "unit": "µM"}, {"measurement": "TGI", "setting": "EKVX NSCLC", "value": "> 60", "unit": "µM"}, {"measurement": "GI50", "setting": "HCC-2998 colon", "value": "> 60", "unit": "µM"}, {"measurement": "TGI", "setting": "HCC-2998 colon", "value": "> 60", "unit": "µM"}, {"measurement": "GI50", "setting": "HCT-116 colon", "value": "> 60", "unit": "µM"}, {"measurement": "TGI", "setting": "HCT-116 colon", "value": "> 60", "unit": "µM"}, {"measurement": "GI50", "setting": "HCT-15 colon", "value": "> 60", "unit": "µM"}, {"measurement": "TGI", "setting": "HCT-15 colon", "value": "> 60", "unit": "µM"}, {"measurement": "GI50", "setting": "HL-60(TB) leukemia", "value": "> 60", "unit": "µM"}, {"measurement": "TGI", "setting": "HL-60(TB) leukemia", "value": "> 60", "unit": "µM"}, {"measurement": "GI50", "setting": "HOP-62 NSCLC", "value": "> 60", "unit": "µM"}, {"measurement": "TGI", "setting": "HOP-62 NSCLC", "value": "> 60", "unit": "µM"}, {"measurement": "GI50", "setting": "HS 578T breast", "value": "> 60", "unit": "µM"}, {"measurement": "TGI", "setting": "HS 578T breast", "value": "> 60", "unit": "µM"}, {"measurement": "GI50", "setting": "HT29 colon", "value": "> 60", "unit": "µM"}, {"measurement": "TGI", "setting": "HT29 colon", "value": "> 60", "unit": "µM"}, {"measurement": "GI50", "setting": "IGROV1 ovarian", "value": "> 60", "unit": "µM"}, {"measurement": "TGI", "setting": "IGROV1 ovarian", "value": "> 60", "unit": "µM"}, {"measurement": "GI50", "setting": "K-562 leukemia", "value": "> 60", "unit": "µM"}, {"measurement": "TGI", "setting": "K-562 leukemia", "value": "> 60", "unit": "µM"}, {"measurement": "GI50", "setting": "KM12 colon", "value": "> 60", "unit": "µM"}, {"measurement": "TGI", "setting": "KM12 colon", "value": "> 60", "unit": "µM"}, {"measurement": "GI50", "setting": "LOX IMVI melanoma", "value": "> 60", "unit": "µM"}, {"measurement": "TGI", "setting": "LOX IMVI melanoma", "value": "> 60", "unit": "µM"}, {"measurement": "GI50", "setting": "M14 melanoma", "value": "> 60", "unit": "µM"}, {"measurement": "TGI", "setting": "M14 melanoma", "value": "> 60", "unit": "µM"}, {"measurement": "GI50", "setting": "MALME-3M melanoma", "value": "> 60", "unit": "µM"}, {"measurement": "TGI", "setting": "MALME-3M melanoma", "value": "> 60", "unit": "µM"}, {"measurement": "GI50", "setting": "MCF7 breast", "value": "> 60", "unit": "µM"}, {"measurement": "TGI", "setting": "MCF7 breast", "value": "> 60", "unit": "µM"}, {"measurement": "GI50", "setting": "MDA-MB-231 breast", "value": "> 60", "unit": "µM"}, {"measurement": "TGI", "setting": "MDA-MB-231 breast", "value": "> 60", "unit": "µM"}, {"measurement": "GI50", "setting": "MDA-MB-435", "value": "> 60", "unit": "µM"}, {"measurement": "TGI", "setting": "MDA-MB-435", "value": "> 60", "unit": "µM"}, {"measurement": "GI50", "setting": "MOLT-4 leukemia", "value": "> 60", "unit": "µM"}, {"measurement": "TGI", "setting": "MOLT-4 leukemia", "value": "> 60", "unit": "µM"}, {"measurement": "GI50", "setting": "NCI-H226 lung", "value": "> 60", "unit": "µM"}, {"measurement": "TGI", "setting": "NCI-H226 lung", "value": "> 60", "unit": "µM"}]}]}
